Here are results for five molecules from patent publication US20090124682A1, “Indan-Amide Derivatives with Glycogen Phosphorylase Inhibitory Activity” (priority 2005, published 2009).

In assay [1] the test system is conscious dogs. To be noted: following a glucagon challenge; cited from earlier work.
Assay [2] concerns db/db and ob/ob mice. Conditions: db/db and ob/ob mice following treatment; cited from earlier work.
The test system of assay [3] is hepatocytes. Conditions: cited from earlier work; for glucose output: glucagon stimulated.
In assay [4] the target is T1, Human recombinant liver glycogen phosphorylase a (hrl GPa) (Homo sapiens, UniProt P06737).
T1 sequence (P06737 1-847): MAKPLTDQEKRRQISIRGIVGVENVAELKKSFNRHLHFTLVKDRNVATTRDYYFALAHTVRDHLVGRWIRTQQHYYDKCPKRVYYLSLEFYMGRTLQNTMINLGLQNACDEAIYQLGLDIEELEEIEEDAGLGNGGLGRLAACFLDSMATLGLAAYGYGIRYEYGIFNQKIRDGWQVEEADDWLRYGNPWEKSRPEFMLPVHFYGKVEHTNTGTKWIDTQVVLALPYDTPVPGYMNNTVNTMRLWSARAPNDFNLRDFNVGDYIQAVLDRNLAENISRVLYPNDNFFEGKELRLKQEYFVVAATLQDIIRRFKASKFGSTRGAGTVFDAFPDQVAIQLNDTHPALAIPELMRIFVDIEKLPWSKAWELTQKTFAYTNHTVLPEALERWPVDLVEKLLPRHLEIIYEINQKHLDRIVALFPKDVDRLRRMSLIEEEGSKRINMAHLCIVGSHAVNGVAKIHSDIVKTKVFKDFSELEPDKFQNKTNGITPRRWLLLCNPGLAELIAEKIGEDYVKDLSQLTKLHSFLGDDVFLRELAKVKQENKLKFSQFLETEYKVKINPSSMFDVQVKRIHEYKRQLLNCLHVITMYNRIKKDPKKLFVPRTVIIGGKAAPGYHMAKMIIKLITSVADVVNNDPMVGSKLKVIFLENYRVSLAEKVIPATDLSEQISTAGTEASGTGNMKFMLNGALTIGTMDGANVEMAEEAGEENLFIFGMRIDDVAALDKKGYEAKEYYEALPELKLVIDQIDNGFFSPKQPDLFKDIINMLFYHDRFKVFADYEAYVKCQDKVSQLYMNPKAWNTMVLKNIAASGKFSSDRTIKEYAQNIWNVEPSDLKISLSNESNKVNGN
Put plainly: glycogen phosphorylase multienzyme coupled assay (glucose-1-phosphate production from glycogen). It is filed as biochemical. To be noted: hrl GPa 20 nM, 6 hours at 30° C., 8 mM glucose. On the procedure: The activity of the compounds is determined by measuring the inhibitory effect of the compounds on glycogen degradation, the production of glucose-1-phosphate from glycogen is monitored by the multienzyme coupled assay, as described in EP 0 846 464 A2, general method of Pesce et al (Pesce, M A, Bodourian, S H, Harris, R C, and Nicholson, J F (1977) Clinical Chemistry 23, […]). The reactions were in 384 well microplate format in a volume of 50 μl. The change in fluorescence due to the conversion of the co-factor NAD to NADH is measured at 340 nm excitation, 465 nm emission in a Tecan Ultra Multifunctional Microplate Reader. The reaction is in 50 mM HEPES, 3.5 mM KH2PO4, 2.5 mM MgCl2, 2.5 mM ethylene glycol-bis(b-aminoethyl ether) N,N,N′N′-tetraacetic acid, 100 mM KCl, 8 mM D-(+)-glucose pH7.2, containing 0.5 mM dithiothreitol, the assay buffer solution. Human recombinant liver glycogen phosphorylase a (hrl GPa) 20 nM is pre-incubated in assay buffer solution with 6.25 mM NAD, 1.25 mg type III glycogen at 1.25 mg ml^−1 the reagent buffer, for 30 minutes. […] The non-inhibited activity of GPa is measured in the presence of 10 μl 15% DMSO in assay buffer solution and maximum inhibition measured in the presence of 5 mgs ml^−1 N-ethylmaleimide. […] Relative Fluoresence Units (RFUs) are measured at 340 nm excitation, 465 nm emission. […]
Activity is calculated as follows:—

As to `CCN1C(C)=C(C(=O)OC(C)C)C(c2ccccc2Cl)C2=C1COC2=O` (stereo not shown) [Bay R 3401], in assay [1], the arterial plasma glucose result is listed as “reduced significantly” and the hepatic glucose output entry is recorded as “reduced significantly”.
Consider `CN(C)C(=O)[C@H](O)[C@H](Cc1ccccc1)NC(=O)c1cc2cc(Cl)ccc2[nH]1` [CP91149], for which the plasma glucose concentration entry in assay [2] is “reduced, in a dose related manner”. For the same molecule, in assay [3], the glucagon stimulated glycogenolysis entry is “reduce” and the glucose output entry is recorded as “reduce”.
With `O=C(N[C@@H](Cc1ccc(F)cc1)C(=O)N1CCC(O)CC1)c1cc2cc(Cl)ccc2[nH]1` [CP320626], in assay [2], the plasma glucose concentration entry is “reduced, in a dose related manner”. Moreover, in assay [3], the glucagon stimulated glycogenolysis entry was “reduce” and the glucose output result is “reduce”.
As for `O=C(O)COC[C@@H]1c2ccccc2C[C@H]1NC(=O)c1cc2cc(F)ccc2[nH]1` [Example 2, [((1R,2R)-2-{[(5-Fluoro-1H-indol-2-yl)carbonyl]amino}-2,3-dihydro-1H-inden-1-yl)methoxy]acetic acid], the IC50 in assay [4] worked out at 1670 nM.
With `O=C(O)C[C@@H]1c2ccccc2C[C@H]1NC(=O)c1cc2cc(F)ccc2[nH]1` [Example 5, ((1R,2R)-2-{[(5-Fluoro-1H-indol-2-yl)carbonyl]amino}-2,3-dihydro-1H-inden-1-yl)acetic acid], the IC50 in assay [4] was determined as 161 nM.
